# Reference: patent publication US20250163104A1, “MACROCYCLIC IMMUNOMODULATORS” (priority 2021, published 2025)
# Where a SMILES comes first, the peptide text is derived from it. Bridges are numbered along the chain shown (N, C = ends). [ ]: non-standard residue; d: D form. The star is where a group is joined. ξ: configuration not given here. Phe(3,4,5-F3) = N[C@@H](Cc1cc(F)c(F)c(F)c1)C(=O)O; Phe(4-COOH) = N[C@@H](Cc1ccc(C(=O)O)cc1)C(=O)O; Asp(3,3-Me2) = CC(C)(C(=O)O)[C@H](N)C(=O)O; Bip = N[C@@H](Cc1ccc(-c2ccccc2)cc1)C(=O)O; Phe(3-Me) = Cc1cccc(C[C@H](N)C(=O)O)c1; Ala(cPent) = N[C@@H](CC1CCCC1)C(=O)O; Val(3-OH) = CC(C)(O)[C@H](N)C(=O)O; 4Pal = N[C@@H](Cc1ccncc1)C(=O)O; Cha = N[C@@H](CC1CCCCC1)C(=O)O; Cit = NC(=O)NCCC[C@H](N)C(=O)O; Gly(cPr) = N[C@H](C(=O)O)C1CC1; Ile(3ξ) = CCC(C)[C@H](N)C(=O)O; dCha = N[C@H](CC1CCCCC1)C(=O)O; Thr(3ξ) = CC(O)[C@H](N)C(=O)O; Carboxymethyl = O=C(O)C*; Nle = CCCC[C@H](N)C(=O)O; Orn = NCCC[C@H](N)C(=O)O; Dab = NCC[C@H](N)C(=O)O; Dap = NC[C@H](N)C(=O)O
# Biological target: T1, human PD-1 / PD-L1-Ig binding on Jurkat cell line over-expressing human PD-1 (Jurkat-PD-1) (Homo sapiens, UniProt Q15116)
# T1 construct: expressed in transfected cells; host or cells: Jurkat
# Test: Jurkat-PD-1 Cell Binding High-Content Screening Assay (CBA)
# Format: cell-based
# Settings: Jurkat HPD1_PDL1 IC50, Jurkat-PD-1 cells, PE-labeled PD-L1-Ig 20 nM final
# In short: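 Binding of fluorescent PD-L1-Ig (phycoerythrin linked via the Ig tag, 20 nM final) to PD-1-overexpressing Jurkat cells was imaged after a 2 h, 37° C compound pretreatment and 1 hour ligand incubation.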
# T1 sequence (Q15116 25-288): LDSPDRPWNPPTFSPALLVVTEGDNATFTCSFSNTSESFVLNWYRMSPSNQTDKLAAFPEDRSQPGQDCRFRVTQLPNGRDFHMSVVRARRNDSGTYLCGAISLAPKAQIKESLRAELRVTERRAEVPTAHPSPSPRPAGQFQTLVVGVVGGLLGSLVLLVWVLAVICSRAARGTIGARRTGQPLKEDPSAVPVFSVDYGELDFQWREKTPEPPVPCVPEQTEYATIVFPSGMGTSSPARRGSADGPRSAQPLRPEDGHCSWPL
row,IC50 [nM],SMILES
1,124,CC(C)C[C@@H]1NC(=O)[C@H](Cc2c[nH]c3ccccc23)NC(=O)[C@H](CC(=O)O)NC(=O)[C@H](Cc2ccc(O)cc2)NC(=O)[C@H](Cc2ccccc2)NC(=O)CSC[C@@H](C(=O)NCC(N)=O)NC(=O)[C@H]([C@@H](C)O)NC(=O)[C@H](C(C)C)NC(=O)[C@H](CC(C)C)NC(=O)[C@H](CC(N)=O)NC(=O)[C@@H](C)NC(=O)[C@H](CN)NC(=O)[C@H](C(C)C)NC(=O)[C@H](Cc2ccc(-c3ccccc3)cc2)NC1=O [Compound 1074] ({CH2CO}-FYDWL[Bip]V[Dap][dA]NLVTCG-NH2; thioether N-14)

# Same assay, conditions: Jurkat-PD-1 cells, PE-labeled PD-L1-Ig 20 nM final; read-out: Jurkat HPD1_PDL1 IC50
row,SMILES,IC50 [nM]
1,"CC(C)C[C@H]1NC(=O)[C@H](CCCN)NC(=O)[C@H](CCCNC(N)=O)NC(=O)[C@H](Cc2ccc(-c3ccccc3)cc2)NC(=O)[C@H](C(C)C)NC(=O)[C@H](Cc2c[nH]c3ccccc23)NC(=O)[C@H](CC(=O)O)NC(=O)[C@H](Cc2cc(F)c(F)c(F)c2)NC(=O)[C@H](CN)NC(=O)CSC[C@@H](C(=O)N[C@@H](C)C(N)=O)NC(=O)[C@H]([C@@H](C)O)NC(=O)[C@H](C(C)C)NC(=O)[C@H](CC2CCCCC2)NC(=O)[C@H](CCN)NC1=O [Compound 2127] ({CH2CO}-[Dap][Phe(3,4,5-F3)]DWV[Bip][Cit][Orn][dL][Dab][Cha]VTCA-NH2; thioether N-14)",47.4
2,CCC(C)[C@@H]1NC(=O)[C@H](Cc2c[nH]c3ccccc23)NC(=O)[C@H](CC(=O)O)NC(=O)[C@H](Cc2ccc(OCC(=O)O)cc2)NC(=O)[C@H](C(C)O)NC(=O)CSC[C@@H](C(=O)N[C@@H](CC(N)=O)C(=O)O)NC(=O)[C@H](CO)NC(=O)[C@H](C(C)C)NC(=O)[C@H](CC(C)C)NC(=O)[C@H](CCN)NC(=O)[C@@H](CC(C)C)NC(=O)[C@H](CCCN)NC(=O)[C@H](C(C)CC)NC(=O)[C@H](Cc2ccc(-c3ccccc3)cc2)NC1=O (stereo partly drawn) [Compound 2573] ({CH2CO}-[Thr(3ξ)]Y(Carboxymethyl)DW[Ile(3ξ)][Bip][Ile(3ξ)][Orn][dL][Dab]LVSCN-OH; thioether N-14),162
3,CC(C)C[C@H]1NC(=O)[C@H](CCCN)NC(=O)[C@H](CCC(=O)O)NC(=O)[C@H](Cc2ccc(-c3ccccc3)cc2)NC(=O)[C@H](C2CC2)NC(=O)[C@H](Cc2c[nH]c3ccccc23)NC(=O)[C@H](CC(=O)O)NC(=O)[C@H](Cc2ccc(OCC(=O)O)cc2)NC(=O)[C@H](CN)NC(=O)CSC[C@@H](C(=O)N[C@@H](C)C(N)=O)NC(=O)[C@H]([C@@H](C)O)NC(=O)[C@H](C(C)C)NC(=O)[C@H](CC2CCCCC2)NC(=O)[C@H](CCN)NC1=O [Compound 1716] ({CH2CO}-[Dap]Y(Carboxymethyl)DW[Gly(cPr)][Bip]E[Orn][dL][Dab][Cha]VTCA-NH2; thioether N-14),24.9
4,CCC(C)[C@@H]1NC(=O)[C@H](Cc2ccc(-c3ccccc3)cc2)NC(=O)[C@H](C(C)C)NC(=O)[C@H](Cc2c[nH]c3ccccc23)NC(=O)[C@H](CC(=O)O)NC(=O)[C@H](Cc2ccncc2)NC(=O)[C@H](Cc2ccncc2)NC(=O)CSC[C@@H](C(=O)N[C@@H](C)C(N)=O)NC(=O)[C@H]([C@@H](C)O)NC(=O)[C@H](C(C)C)NC(=O)[C@H](CC2CCCCC2)NC(=O)[C@H](CCN)NC(=O)[C@@H](CC(C)C)NC(=O)[C@H](CCCN)NC1=O (stereo partly drawn) [Compound 2238] ({CH2CO}-[4Pal][4Pal]DWV[Bip][Ile(3ξ)][Orn][dL][Dab][Cha]VTCA-NH2; thioether N-14),18.2
5,CC(C)C[C@@H]1NC(=O)[C@H](Cc2c[nH]c3ccccc23)NC(=O)[C@H](CC(=O)O)NC(=O)[C@H](Cc2ccc(O)cc2)NC(=O)[C@H](Cc2ccccc2)NC(=O)CSC[C@@H](C(=O)N[C@@H](C)C(N)=O)NC(=O)[C@H]([C@@H](C)O)NC(=O)[C@H](C(C)C)NC(=O)[C@H](CC(C)C)NC(=O)[C@H](CC(N)=O)NC(=O)[C@@H](CC(C)C)NC(=O)[C@H](CCN)NC(=O)[C@H](C(C)C)NC(=O)[C@H](Cc2ccc(-c3ccccc3)cc2)NC1=O [Compound 1058] ({CH2CO}-FYDWL[Bip]V[Dab][dL]NLVTCA-NH2; thioether N-14),18.1
6,CC(C)C[C@H]1NC(=O)[C@H](CCCN)NC(=O)[C@H](CCC(=O)O)NC(=O)[C@H](Cc2ccc(-c3ccccc3)cc2)NC(=O)[C@H](C(C)C)NC(=O)[C@H](Cc2cccc(Cl)c2)NC(=O)[C@H](CC(=O)O)NC(=O)[C@H](Cc2ccc(OCC(=O)O)cc2)NC(=O)[C@H](Cc2cccnc2)NC(=O)CSC[C@@H](C(=O)N[C@@H](C)C(N)=O)NC(=O)[C@H]([C@@H](C)O)NC(=O)[C@H](C(C)C)NC(=O)[C@H](CC2CCCCC2)NC(=O)[C@H](CCN)NC1=O [Compound 1501],10.7
7,CC(C)C[C@H]1NC(=O)[C@H](CCCN)NC(=O)[C@H](CCC(=O)O)NC(=O)[C@H](Cc2ccc(-c3ccccc3)cc2)NC(=O)[C@H](CC2CCCC2)NC(=O)[C@H](Cc2c[nH]c3ccccc23)NC(=O)[C@H](CC(=O)O)NC(=O)[C@H](Cc2ccc(OCC(=O)O)cc2)NC(=O)[C@H](CN)NC(=O)CSC[C@@H](C(=O)N[C@@H](C)C(N)=O)NC(=O)[C@H]([C@@H](C)O)NC(=O)[C@H](C(C)C)NC(=O)[C@H](CC2CCCCC2)NC(=O)[C@H](CCN)NC1=O [Compound 1715] ({CH2CO}-[Dap]Y(Carboxymethyl)DW[Ala(cPent)][Bip]E[Orn][dL][Dab][Cha]VTCA-NH2; thioether N-14),38.4
8,CC(C)[C@@H]1NC(=O)[C@H](Cc2c[nH]c3ccccc23)NC(=O)[C@H](CC(=O)O)NC(=O)[C@H](Cc2ccncc2)NC(=O)[C@H](CN)NC(=O)CSC[C@@H](C(=O)N[C@@H](C)C(N)=O)NC(=O)[C@H]([C@@H](C)O)NC(=O)[C@H](C(C)C)NC(=O)[C@H](CC2CCCCC2)NC(=O)[C@H](CCN)NC(=O)[C@@H](CC2CCCCC2)NC(=O)[C@H](CCCN)NC(=O)[C@H](CCCNC(N)=O)NC(=O)[C@H](Cc2ccc(-c3ccccc3)cc2)NC1=O [Compound 1646] ({CH2CO}-[Dap][4Pal]DWV[Bip][Cit][Orn][dCha][Dab][Cha]VTCA-NH2; thioether N-14),28.1

# More lines, now with the values ahead:
row,IC50 [nM],SMILES
1,13.6,CC(C)C[C@@H]1NC(=O)[C@H](Cc2c[nH]c3ccccc23)NC(=O)[C@H](CC(=O)O)NC(=O)[C@H](Cc2ccc(C(=O)O)cc2)NC(=O)[C@H](Cc2ccc(OCC(=O)O)cc2)NC(=O)CSC[C@@H](C(=O)NCC(N)=O)NC(=O)[C@H](CO)NC(=O)[C@H](C(C)C)NC(=O)[C@H](CC(C)C)NC(=O)[C@H](CC(N)=O)NC(=O)[C@@H](CC(C)C)NC(=O)[C@H](CCN)NC(=O)[C@H](C(C)C)NC(=O)[C@H](Cc2ccc(-c3ccccc3)cc2)NC1=O [Compound 1279] ({CH2CO}-Y(Carboxymethyl)[Phe(4-COOH)]DWL[Bip]V[Dab][dL]NLVSCG-NH2; thioether N-14)
2,13.3,CC(C)C[C@H]1NC(=O)[C@H](CCCN)NC(=O)[C@H](CCCCN)NC(=O)[C@H](Cc2ccc(-c3ccccc3)cc2)NC(=O)[C@H](C(C)C)NC(=O)[C@H](Cc2c[nH]c3ccccc23)NC(=O)[C@H](CC(=O)O)NC(=O)[C@H](Cc2ccc(O)cc2)NC(=O)[C@H](CC(N)=O)NC(=O)CSC[C@@H](C(=O)N[C@@H](C)C(N)=O)NC(=O)[C@H]([C@@H](C)O)NC(=O)[C@H](C(C)C)NC(=O)[C@H](CC2CCCCC2)NC(=O)[C@H](CCN)NC1=O [Compound 1381] ({CH2CO}-NYDWV[Bip]K[Orn][dL][Dab][Cha]VTCA-NH2; thioether N-14)
3,21.7,CCCC[C@@H]1NC(=O)[C@H](CC(N)=O)NC(=O)[C@@H](CC(C)C)NC(=O)[C@H](CCCN)NC(=O)[C@H](C(C)C)NC(=O)[C@H](Cc2ccc(-c3ccccc3)cc2)NC(=O)[C@H](CC(C)C)NC(=O)[C@H](Cc2c[nH]c3ccccc23)NC(=O)[C@H](CC(=O)O)NC(=O)[C@H](Cc2ccc(C(=O)O)cc2)NC(=O)[C@H](Cc2ccc(OCC(=O)O)cc2)NC(=O)CSC[C@@H](C(=O)NCC(N)=O)NC(=O)[C@H](CO)NC(=O)[C@H](C(C)C)NC1=O [Compound 1340] ({CH2CO}-Y(Carboxymethyl)[Phe(4-COOH)]DWL[Bip]V[Orn][dL]N[Nle]VSCG-NH2; thioether N-14)
4,38.5,Cc1cccc(C[C@@H]2NC(=O)[C@H](CC(=O)O)NC(=O)[C@H](Cc3ccc(OCC(=O)O)cc3)NC(=O)[C@H](Cc3cnc[nH]3)NC(=O)CSC[C@@H](C(=O)N[C@H](C)C(N)=O)NC(=O)[C@H](C(C)O)NC(=O)[C@H](C(C)(C)O)NC(=O)[C@H](CC3CCCCC3)NC(=O)[C@H](CCN)NC(=O)[C@@H](CC(C)C)NC(=O)[C@H](CCCN)NC(=O)[C@H](Cc3ccc(OCC(=O)O)cc3)NC(=O)[C@H](Cc3ccc(-c4ccccc4)cc3)NC(=O)[C@H](Cc3ccc(OCC(=O)O)cc3)NC2=O)c1 (stereo partly drawn) [Compound 2650] ({CH2CO}-HY(Carboxymethyl)D[Phe(3-Me)]Y(Carboxymethyl)[Bip]Y(Carboxymethyl)[Orn][dL][Dab][Cha][Val(3-OH)][Thr(3ξ)]C[dA]-NH2; thioether N-14)
5,70,"Cc1cccc(C[C@@H]2NC(=O)[C@H](CC(=O)O)NC(=O)[C@H](Cc3ccc(OCC(=O)O)cc3)NC(=O)[C@H](Cc3ccncc3)NC(=O)CSC[C@@H](C(=O)N[C@@H](CCN)C(N)=O)NC(=O)[C@H](C(C)(C)C(=O)O)NC(=O)[C@H](C(C)C)NC(=O)[C@H](CC3CCCCC3)NC(=O)[C@H](CCN)NC(=O)[C@@H](CC(C)C)NC(=O)[C@H](CCCN)NC(=O)[C@H](Cc3ccc(OCC(=O)O)cc3)NC(=O)[C@H](Cc3ccc(-c4ccccc4)cc3)NC(=O)[C@H](Cc3ccc(OCC(=O)O)cc3)NC2=O)c1 [Compound 2085] ({CH2CO}-[4Pal]Y(Carboxymethyl)D[Phe(3-Me)]Y(Carboxymethyl)[Bip]Y(Carboxymethyl)[Orn][dL][Dab][Cha]V[Asp(3,3-Me2)]C[Dab]-NH2; thioether N-14)"
